Results taken from patent publication US4293694A, “Pyrido[3,2,1-jk]carbazols” (Otsuka Pharmaceutical Co., Ltd., priority 1979, dated 1981).
Values after ≈ are worked out from the molar mass of the structure shown. Like-named read-outs stand apart in the source and are kept apart here.

What was measured:
[1] = system: Bacillus subtilis ATCC 6633; experiment: Antimicrobial activity, serial dilution method on agar plate; type: cell-based; conditions: ATCC6633, read-out: Minimum Inhibitory Concentration (MIC)
Bacillus anthracis = experiment: microbe, parasite or virus in culture; type: cell-based; conditions: read-out: Minimum Inhibitory Concentration (MIC)
[2] = system: Bacillus cereus ATCC 11778; experiment: Antimicrobial activity, serial dilution method on agar plate; type: cell-based; conditions: ATCC11778, read-out: Minimum Inhibitory Concentration (MIC)
[3] = system: Staphyrococcus aureus FDA 209p; experiment: as above; type: cell-based; conditions: read-out: Minimum Inhibitory Concentration (MIC)
[4] = system: Staphyrococcus aureus Newmann; experiment: as above; type: cell-based; conditions: read-out: Minimum Inhibitory Concentration (MIC)
[5] = system: Streptococcus faecalis IFO 12580; experiment: as above; type: cell-based; conditions: Enterococcus faecalis, IFO12580, read-out: Minimum Inhibitory Concentration (MIC)
Streptomyces viridans = experiment: as above; type: cell-based; conditions: read-out: Minimum Inhibitory Concentration (MIC)
Sarcina lutea ATCC 9341 = experiment: as above; type: cell-based; conditions: Micrococcus luteus, ATCC9341, read-out: Minimum Inhibitory Concentration (MIC)
[6] = system: Micrococcus flavus ATCC 10240a; experiment: as above; type: cell-based; conditions: ATCC10240A, read-out: Minimum Inhibitory Concentration (MIC)
[7] = system: Serratia marcescens ATCC 14756; experiment: as above; type: cell-based; conditions: ATCC14756, read-out: Minimum Inhibitory Concentration (MIC)
[8] = system: Salmonella typhimurium kh; experiment: as above; type: cell-based; conditions: Salmonella enterica, read-out: Minimum Inhibitory Concentration (MIC)
Enterbactor cloacae 2 = experiment: as above; type: cell-based; conditions: read-out: Minimum Inhibitory Concentration (MIC)
[9] = system: Enterbactor aerogenes IFO 12979; experiment: as above; type: cell-based; conditions: read-out: Minimum Inhibitory Concentration (MIC)
[10] = system: Klebsiella pneumoniae ST-101; experiment: as above; type: cell-based; conditions: ST101, read-out: Minimum Inhibitory Concentration (MIC)
Esherichia coli NIHJ = experiment: as above; type: cell-based; conditions: read-out: Minimum Inhibitory Concentration (MIC)
[11] = system: Esherichia coli NIHJ JC-2; experiment: as above; type: cell-based; conditions: read-out: Minimum Inhibitory Concentration (MIC)
Proteus mirabilis 1287 = experiment: as above; type: cell-based; conditions: read-out: Minimum Inhibitory Concentration (MIC)
[12] = system: Pseudomonas aeruginosa ATCC 10145; experiment: as above; type: cell-based; conditions: ATCC10145, read-out: Minimum Inhibitory Concentration (MIC)
Candida albicans KYU = experiment: as above; type: cell-based; conditions: read-out: Minimum Inhibitory Concentration (MIC)
Acute toxicity = conditions: rat, in vivo, rats, dd strain, 18 to 22 g, fasted 12 hours
Protocol: Further, the acute toxicity of the compounds of the present invention having the formula (I) was determined by intravenous administration (i.v.) and oral administration (p.o.) in 5 to 6 groups of rats (dd strain; body weight, 18 to 22 g; 10 rats in each group) which had been fasted for 12 hours prior to the test.

[13] = iv, read-out: LD50 (50% lethal dose), i.v.
[14] = po, read-out: LD50 (50% lethal dose), p.o.

Row | Structure (SMILES) | MIC [1] [µg/mL] | MIC (Bacillus anthracis) [µg/mL] | MIC [2] [µg/mL] | MIC [3] [µg/mL] | MIC [4] [µg/mL] | MIC [5] [µg/mL] | MIC (Streptomyces viridans) [µg/mL] | MIC (Sarcina lutea ATCC 9341) [µg/mL] | MIC [6] [µg/mL] | MIC [7] [µg/mL] | MIC [8] [µg/mL] | MIC (Enterbactor cloacae 2) [µg/mL] | MIC [9] [µg/mL] | MIC [10] [µg/mL] | MIC (Esherichia coli NIHJ) [µg/mL] | MIC [11] [µg/mL] | MIC (Proteus mirabilis 1287) [µg/mL] | MIC [12] [µg/mL] | MIC (Candida albicans KYU) [µg/mL] | LD50 (Acute toxicity; [13]) [mg/kg] | other results
1 | O=C(O)c1cn2c3c(cc(F)cc3c1=O)C1CCCCC12 (stereo not shown) [Compound 1, 2-fluoro-7a,8,9,10,11,11a-hexahydro-4-oxo-4H-pyrido[3,2,1-jk]carbazol-5-carboxylic acid] | 1.6 (≈ 5.57 µM) | 3.2 (≈ 11.1 µM) | 25 (≈ 87 µM) | 6.3 (≈ 21.9 µM) | 6.3 (≈ 21.9 µM) | 100 (≈ 348 µM) | 100 (≈ 348 µM) | 50 (≈ 174 µM) | 50 (≈ 174 µM) | 3.2 (≈ 11.1 µM) | 6.3 (≈ 21.9 µM) | 3.2 (≈ 11.1 µM) | 3.2 (≈ 11.1 µM) | 3.2 (≈ 11.1 µM) | 6.3 (≈ 21.9 µM) | 6.3 (≈ 21.9 µM) | 12.5 (≈ 43.5 µM) | > 100 | > 500 | 130 | LD50 (Acute toxicity; [14]): 5000 mg/kg
2 | O=C(O)c1cn2c3c(cccc3c1=O)C1CCCCC12 (stereo not shown) [Compound 2, 7a,8,9,10,11,11a-Hexahydro-4-oxo-4H-pyrido[3,2,1-jk]carbazol-5-carboxylic acid] | 12.5 (≈ 46.4 µM) | 25 (≈ 92.8 µM) | 100 (≈ 371 µM) | 25 (≈ 92.8 µM) | 25 (≈ 92.8 µM) | > 100 | > 100 | 100 (≈ 371 µM) | 100 (≈ 371 µM) | 12.5 (≈ 46.4 µM) | 25 (≈ 92.8 µM) | 12.5 (≈ 46.4 µM) | 12.5 (≈ 46.4 µM) | 12.5 (≈ 46.4 µM) | 25 (≈ 92.8 µM) | 25 (≈ 92.8 µM) | 50 (≈ 186 µM) | > 100 | > 500 | 120 | LD50 (Acute toxicity; [14]): 5000 mg/kg
3 | CCOC(=O)c1cn2c3c(cc(F)cc3c1=O)C1CCCCC12 (stereo not shown) [Compound 3, ethyl 2-fluoro-7a,8,9,10,11,11a-hexahydro-4-oxo-4H-pyrido-[3,2,1-jk]carbazol-5-carboxylate] | 6.3 (≈ 20 µM) | 50 (≈ 159 µM) | 100 (≈ 317 µM) | 25 (≈ 79.3 µM) | 25 (≈ 79.3 µM) | > 100 | > 100 | 100 (≈ 317 µM) | 100 (≈ 317 µM) | 25 (≈ 79.3 µM) | 25 (≈ 79.3 µM) | 12.5 (≈ 39.6 µM) | 25 (≈ 79.3 µM) | 12.5 (≈ 39.6 µM) | 25 (≈ 79.3 µM) | 12.5 (≈ 39.6 µM) | 25 (≈ 79.3 µM) | > 100 | > 500 | 80 | LD50 (Acute toxicity; [14]): 3000 mg/kg
4 | COc1cc2c3c(c1)c(=O)c(C(=O)O)cn3C1CCCCC21 (stereo not shown) [Compound 4, 2-Methoxy-7a,8,9,10,11,11a-hexahydro-4-oxo-4H-pyrido[3,2,1-jk]carbazol-5-carboxylic acid] | 3.2 (≈ 10.7 µM) | 6.3 (≈ 21 µM) | 12.5 (≈ 41.8 µM) | 12.5 (≈ 41.8 µM) | 12.5 (≈ 41.8 µM) | 100 (≈ 334 µM) | 100 (≈ 334 µM) | 100 (≈ 334 µM) | 100 (≈ 334 µM) | 12.5 (≈ 41.8 µM) | 12.5 (≈ 41.8 µM) | 6.3 (≈ 21 µM) | 6.3 (≈ 21 µM) | 6.3 (≈ 21 µM) | 12.5 (≈ 41.8 µM) | 12.5 (≈ 41.8 µM) | 25 (≈ 83.5 µM) | > 100 | > 500 | 130 | LD50 (Acute toxicity; [14]): 4000 mg/kg
5 | Cc1cc(C)c2c(=O)c(C(=O)O)cn3c2c1C1CCCCC13 (stereo not shown) [Compound 5, 1,3-Dimethyl-7a,8,9,10,11,11a-hexahydro-4-oxo-4H-pyrido[3,2,1-jk]carbazol-5-carboxylic acid] | 6.3 (≈ 21.2 µM) | 6.3 (≈ 21.2 µM) | 25 (≈ 84.1 µM) | 6.3 (≈ 21.2 µM) | 6.3 (≈ 21.2 µM) | > 100 | > 100 | 100 (≈ 336 µM) | 100 (≈ 336 µM) | 6.3 (≈ 21.2 µM) | 12.5 (≈ 42 µM) | 6.3 (≈ 21.2 µM) | 12.5 (≈ 42 µM) | 12.5 (≈ 42 µM) | 12.5 (≈ 42 µM) | 12.5 (≈ 42 µM) | 12.5 (≈ 42 µM) | > 100 | > 500 | 120 | LD50 (Acute toxicity; [14]): 3000 mg/kg
6 | O=C(O)c1cn2c3c(ccc([N+](=O)[O-])c3c1=O)C1CCCCC12 (stereo not shown) [Compound 6, 3-nitro-7a,8,9,10,11,11a-hexahydro-4-oxo-4H-pyrido[3,2,1-jk]carbazol-5-carboxylic acid] | 3.2 (≈ 10.2 µM) | 12.5 (≈ 39.8 µM) | 12.5 (≈ 39.8 µM) | 12.5 (≈ 39.8 µM) | 12.5 (≈ 39.8 µM) | > 100 | > 100 | 50 (≈ 159 µM) | 50 (≈ 159 µM) | 6.3 (≈ 20 µM) | 12.5 (≈ 39.8 µM) | 6.3 (≈ 20 µM) | 6.3 (≈ 20 µM) | 6.3 (≈ 20 µM) | 6.3 (≈ 20 µM) | 12.5 (≈ 39.8 µM) | 12.5 (≈ 39.8 µM) | > 100 | > 500 | 110 | LD50 (Acute toxicity; [14]): 4000 mg/kg
7 | Nc1ccc2c3c1c(=O)c(C(=O)O)cn3C1CCCCC21 (stereo not shown) [Compound 7, 3-amino-7a,8,9,10,11,11a-hexahydro-4-oxo-4H-pyrido[3,2,1-jk]carbazol-5-carboxylic acid] | 6.3 (≈ 22.2 µM) | 12.5 (≈ 44 µM) | 50 (≈ 176 µM) | 50 (≈ 176 µM) | 50 (≈ 176 µM) | > 100 | > 100 | > 100 | > 100 | 12.5 (≈ 44 µM) | 12.5 (≈ 44 µM) | 12.5 (≈ 44 µM) | 12.5 (≈ 44 µM) | 12.5 (≈ 44 µM) | 25 (≈ 87.9 µM) | 50 (≈ 176 µM) | 50 (≈ 176 µM) | > 100 | > 500 | 115 | LD50 (Acute toxicity; [14]): 4500 mg/kg
8 | CC(=O)Nc1ccc2c3c1c(=O)c(C(=O)O)cn3C1CCCCC21 (stereo not shown) [Compound 8, 3-acetylamino-7a,8,9,10,11,11a-hexahydro-4-oxo-4H-pyrido[3,2,1-jk]carbazol-5-carboxylic acid] | 3.2 (≈ 9.81 µM) | 6.3 (≈ 19.3 µM) | 50 (≈ 153 µM) | 12.5 (≈ 38.3 µM) | 12.5 (≈ 38.3 µM) | 100 (≈ 306 µM) | 100 (≈ 306 µM) | 50 (≈ 153 µM) | 50 (≈ 153 µM) | 3.2 (≈ 9.81 µM) | 6.3 (≈ 19.3 µM) | 6.3 (≈ 19.3 µM) | 6.3 (≈ 19.3 µM) | 6.3 (≈ 19.3 µM) | 12.5 (≈ 38.3 µM) | 12.5 (≈ 38.3 µM) | 25 (≈ 76.6 µM) | > 100 | > 500 | 110 | LD50 (Acute toxicity; [14]): 3500 mg/kg
9 | O=C(OCCBr)c1cn2c3c(cc(F)cc3c1=O)C1CCCCC12 (stereo not drawn) [Compound 9, β-bromoethyl 2-fluoro-7a,8,9,10,11,11a-hexahydro-4-oxo-4H-pyrido[3,2,1-jk]carbazol-5-carboxylate] | 12.5 (≈ 31.7 µM) | 50 (≈ 127 µM) | 100 (≈ 254 µM) | 50 (≈ 127 µM) | 50 (≈ 127 µM) | > 100 | > 100 | 100 (≈ 254 µM) | 100 (≈ 254 µM) | 12.5 (≈ 31.7 µM) | 25 (≈ 63.4 µM) | 12.5 (≈ 31.7 µM) | 25 (≈ 63.4 µM) | 25 (≈ 63.4 µM) | 25 (≈ 63.4 µM) | 25 (≈ 63.4 µM) | 50 (≈ 127 µM) | > 100 | > 500 | 105 | LD50 (Acute toxicity; [14]): 3000 mg/kg
10 | NNC(=O)c1cn2c3c(cc(F)cc3c1=O)C1CCCCC12 (stereo not shown) [Compound 10, 2-Fluoro-7a,8,9,10,11,11a-hexahydro-4-oxo-4H-pyrido[3,2,1-jk]carbazol-5-carbohydrazide] | 25 (≈ 83 µM) | 100 (≈ 332 µM) | 100 (≈ 332 µM) | 50 (≈ 166 µM) | 50 (≈ 166 µM) | > 100 | > 100 | > 100 | > 100 | 25 (≈ 83 µM) | 25 (≈ 83 µM) | 12.5 (≈ 41.5 µM) | 12.5 (≈ 41.5 µM) | 12.5 (≈ 41.5 µM) | 25 (≈ 83 µM) | 25 (≈ 83 µM) | 50 (≈ 166 µM) | > 100 | > 500 | 100 | LD50 (Acute toxicity; [14]): 3500 mg/kg
11 | CCn1cc(C(=O)O)c(=O)c2ccc(C)nc21 [Compound 13, 1-ethyl-1,4-dihydro-7-methyl-4-one-1,8-naphthyridine-3-carboxylic acid, reference compound] | 6.3 (≈ 27.1 µM) | 12.5 (≈ 53.8 µM) | 50 (≈ 215 µM) | 50 (≈ 215 µM) | 50 (≈ 215 µM) | > 100 | > 100 | > 100 | > 100 | 3.2 (≈ 13.8 µM) | 6.3 (≈ 27.1 µM) | 12.5 (≈ 53.8 µM) | 6.3 (≈ 27.1 µM) | 12.5 (≈ 53.8 µM) | 12.5 (≈ 53.8 µM) | 6.3 (≈ 27.1 µM) | 25 (≈ 108 µM) | > 100 | > 500 | – | –
